Measured values published in the supplement of paper PMC10307832.

Experiments:
Assay in all cases: relative viability (nuclei count vs DMSO), 5 days (fraction); higher = more cells survive
[1] = tested on: NCI-H3122
Outline: (§1)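 Relative viability divides the nuclei count in treated wells by that in vehicle wells. Lung cancer cell lines were seeded in 1536-well plates, dosed by pin tool the next day, and fixed and stained after 5 days in one step with final 0.05% Triton X-100, 1% formaldehyde and 1 ug/ml Hoechst. Dosing was a single drug or a fixed anchor-drug dose plus five library-drug doses (not always all listed) in √10 steps, and values are medians of duplicate plates imaged at 4×.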

[2] = tested on: EMC-BAC-2
Outline: as §1

[3] = tested on: NCI-H596
Outline: as §1

[4] = tested on: ABC-1
Outline: as §1

[5] = tested on: NCI-H1993
Outline: as §1

[6] = tested on: NCI-H1944
Outline: as §1

[7] = tested on: LK-2
Outline: as §1

[8] = tested on: HARA
Outline: as §1

[9] = tested on: NCI-H2228
Outline: as §1

[10] = tested on: SW 900
Outline: as §1

[11] = tested on: HOP-62
Outline: as §1

## Nc1ccn([C@@H]2O[C@H](CO)[C@@H](O)[C@@H]2O)c(=O)n1 [Cytarabine] + O=C(c1cc(Cc2n[nH]c(=O)c3ccccc23)ccc1F)N1CCN(C(=O)C2CC2)CC1 [Olaparib] (partner 8 µM)
[1]; first compound 0.005 µM
  relative viability: 0.545
[1]; first compound 0.01581 µM
  relative viability: 0.658
[1]; first compound 0.05 µM
  relative viability: 0.585
[1]; first compound 0.1581 µM
  relative viability: 0.389
[1]; first compound 0.5 µM
  relative viability: 0.304
[2]; first compound 0.005 µM
  relative viability: 0.53
[2]; first compound 0.01581 µM
  relative viability: 0.449
[2]; first compound 0.05 µM
  relative viability: 0.369
[2]; first compound 0.1581 µM
  relative viability: 0.287
[2]; first compound 0.5 µM
  relative viability: 0.27
[3]; first compound 0.005 µM
  relative viability: 0.678
[3]; first compound 0.01581 µM
  relative viability: 0.692
[3]; first compound 0.05 µM
  relative viability: 0.591
[3]; first compound 0.1581 µM
  relative viability: 0.549
[3]; first compound 0.5 µM
  relative viability: 0.435
[4]; first compound 0.005 µM
  relative viability: 0.7
[4]; first compound 0.01581 µM
  relative viability: 0.756
[4]; first compound 0.05 µM
  relative viability: 0.991
[4]; first compound 0.1581 µM
  relative viability: 0.672
[4]; first compound 0.5 µM
  relative viability: 0.61
[5]; first compound 0.005 µM
  relative viability: 1.05
[5]; first compound 0.01581 µM
  relative viability: 0.933
[5]; first compound 0.05 µM
  relative viability: 0.998
[5]; first compound 0.1581 µM
  relative viability: 0.727
[5]; first compound 0.5 µM
  relative viability: 0.459
[6]; first compound 0.005 µM
  relative viability: 0.438
[6]; first compound 0.01581 µM
  relative viability: 0.33
[6]; first compound 0.05 µM
  relative viability: 0.322
[6]; first compound 0.1581 µM
  relative viability: 0.204
[6]; first compound 0.5 µM
  relative viability: 0.156
[7]; first compound 0.005 µM
  relative viability: 0.659
[7]; first compound 0.01581 µM
  relative viability: 0.5
[7]; first compound 0.05 µM
  relative viability: 0.316
[7]; first compound 0.1581 µM
  relative viability: 0.164
[7]; first compound 0.5 µM
  relative viability: 0.148
[8]; first compound 0.005 µM
  relative viability: 0.928
[8]; first compound 0.01581 µM
  relative viability: 0.413
[8]; first compound 0.05 µM
  relative viability: 0.487
[8]; first compound 0.1581 µM
  relative viability: 0.179
[8]; first compound 0.5 µM
  relative viability: 0.162
[9]; first compound 0.005 µM
  relative viability: 0.379
[9]; first compound 0.01581 µM
  relative viability: 0.203
[9]; first compound 0.05 µM
  relative viability: 0.19
[9]; first compound 0.1581 µM
  relative viability: 0.13
[9]; first compound 0.5 µM
  relative viability: 0.129
[10]; first compound 0.005 µM
  relative viability: 0.899
[10]; first compound 0.01581 µM
  relative viability: 0.797
[10]; first compound 0.05 µM
  relative viability: 0.413
[10]; first compound 0.1581 µM
  relative viability: 0.242
[10]; first compound 0.5 µM
  relative viability: 0.296
[11]; first compound 0.005 µM
  relative viability: 0.436
[11]; first compound 0.01581 µM
  relative viability: 0.338
[11]; first compound 0.05 µM
  relative viability: 0.253
[11]; first compound 0.1581 µM
  relative viability: 0.13
